Seven compounds from ChEMBL document CHEMBL4765414, “Rhodamine B-based fluorescent probes for molecular mechanism study of the anti-influenza activity of pentacyclic triterpenes” (Eur J Med Chem, 2020) can be followed below.

Data set [1] relates to MDCK. Put plainly: Cytotoxicity against dog MDCK cells assessed as reduction in cell viability at 50 uM measured after 36 hrs by Celltiter-Glo luminescence assay. Format: cell-based, Canis lupus familiaris.
The test system of data set [2] is Influenza A virus. Put plainly: Antiviral activity against Influenza A virus A/WSN/33(H1N1) infected in MDCK cells assessed as inhibition of viral replication measured after 36 hrs by CellTiter-Glo assay. The conditions noted are these: A/WSN/1933(H1N1). The format is functional, organism-based. In general terms: ATP-based viability assays read luminescence as a measure of living cells.

The test system of data set [3] is Influenza A virus. Put plainly: Antiviral activity against Influenza A virus A/WSN/33(H1N1) infected in MDCK cells assessed as inhibition of virus-induced cytopathic effects at 50 uM after 36 hrs by microscopic analysis. Also on record: scale not given: the % may be the effect or the level left. The format is functional, A/WSN/1933(H1N1). (Protection from cytopathic effect is a common read-out in antiviral testing.)

Data set [4] concerns Influenza A virus. As to the kind of experiment: Antiviral activity against Influenza A virus A/WSN/33(H1N1) infected in MDCK cells assessed as inhibition of viral replication at 100 uM measured after 36 hrs by CellTiter-Glo assay. Format: functional, organism-based. The conditions noted are these: A/WSN/1933(H1N1).
Data set [5] in a line: Cytotoxicity against dog MDCK cells assessed as reduction in cell viability measured after 36 hrs by Celltiter-Glo luminescence assay. The format is cell-based, Canis lupus familiaris.
Data set [6] can be described thus: Selectivity ratio of CC50 for MDCK cells to IC50 for Influenza A virus A/WSN/33(H1N1) infected in MDCK cells. Format: toxicity, cell-based. The conditions noted are these: dog, read-out: Ratio CC50/IC50.
In data set [7] the test system is Influenza A virus (A/WSN/1933(H1N1)). Put plainly: Binding affinity to recombinant influenza A virus A/WSN/33(H1N1) hemagglutin assessed as association constant by surface plasmon resonance assay. Background: SPR reads the build-up and loss of mass on a sensor chip optically.
Data set [8] in a line: Binding affinity to recombinant influenza A virus A/WSN/33(H1N1) hemagglutin assessed as dissociation constant by surface plasmon resonance assay. The arrangement: species or system Influenza A virus (A/WSN/1933(H1N1)).
The nature of data set [9]: Binding affinity to recombinant influenza A virus A/WSN/33(H1N1) hemagglutin by surface plasmon resonance assay. The arrangement: species or system Influenza A virus (A/WSN/1933(H1N1)).
The subject of data set [10] is Influenza A virus. As to the kind of experiment: Antiviral activity against Influenza A virus A/WSN/33(H1N1) infected in MDCK cells preincubated with cells for 5 hrs followed by viral infection. The note with it: A/WSN/1933(H1N1). The format is functional, organism-based.
Data set [11] has as its system Influenza A virus. As to the kind of experiment: Antiviral activity against Influenza A virus A/WSN/33(H1N1) infected in MDCK cells assessed as inhibition of virus-induced cell death at 50 uM preincubated with cells for 30 mins followed by viral infection for 1 hr and measured after 36 hrs. The arrangement: scale not given: the % may be the effect or the level left. The note with it: time 2250 min, 37.5 h. Format: functional, A/WSN/1933(H1N1).

The subject of data set [12] is Influenza A virus. As to the kind of experiment: Antiviral activity against Influenza A virus A/WSN/33(H1N1) infected in MDCK cells assessed as inhibition of virus-induced cell death at 50 uM cotreated with virus and cells for 1 hrs and measured after 36 hrs. Format: functional, A/WSN/1933(H1N1). Also on record: scale not given: the % may be the effect or the level left. The note with it: time 37 hrs.

Data set [13] in a line: Drug uptake in dog MDCK cells assessed as increase in red fluorescence at 25 uM incubated for 36 hrs by flow cytometry analysis. Format: ADME, cell-based, Canis lupus familiaris.
Data set [14] in a line: Drug uptake in dog MDCK cells assessed as increase in red fluorescence at 25 uM incubated for 1 hr by flow cytometry analysis. The format is ADME, cell-based, Canis lupus familiaris.
A short description of data set [15]: Drug localization in cytoplasm of MDCK cells at 25 uM incubated for 12 hrs by confocal microscopy analysis. Format: ADME, subcellular, Canis lupus familiaris. The note with it: dog.
The nature of data set [16]: Stability of compound in dog MDCK cells after 36 hrs. Format: ADME, cell-based, Canis lupus familiaris.
Data set [17] is described as follows: Drug localization in cell membrane of MDCK cells at 25 uM incubated for 1 to 3 hrs by DOI staining based confocal microscopy analysis. The format is ADME, cell membranes, Canis lupus familiaris. The conditions noted are these: dog, time 1-3 hrs.
For data set [18], the system named is Erythrocyte. Put plainly: Inhibition of Influenza A virus A/WSN/33(H1N1) hemagglutinin assessed as inhibition of chicken erythrocytes hemagglutination upto 20 uM incubated for 30 mins. The format is cell-based. The conditions noted are these: Influenza A virus (A/WSN/1933(H1N1)), dose microM <=20, time 30.0 min.
In data set [19] the test system is Influenza A virus. As to the kind of experiment: Antiviral activity against Influenza A virus A/WSN/33(H1N1) infected in MDCK cells assessed as inhibition of virus-induced cell death at 50 uM preincubated with virus for 30 mins followed by cell infection for 1 hr and measured after 36 hrs. Format: functional, A/WSN/1933(H1N1). Also on record: scale not given: the % may be the effect or the level left. The note with it: time 2250 min, 37.5 h.

Data set [20] concerns Influenza A virus. Put plainly: Antiviral activity against Influenza A virus A/WSN/33(H1N1) infected in MDCK cells preincubated with cells for 12 hrs followed by viral infection. Format: functional, organism-based. The conditions noted are these: A/WSN/1933(H1N1).
The nature of data set [21]: Drug uptake in dog MDCK cells assessed as increase in red fluorescence at 25 uM incubated for 3 hrs by flow cytometry analysis. The format is ADME, cell-based, Canis lupus familiaris.
Data set [22] has as its system Influenza A virus. Put plainly: Antiviral activity against Influenza A virus A/WSN/33(H1N1) infected in MDCK cells assessed as reduction in antiviral activity preincubated with cells for 3 hrs followed by viral infection. Format: functional, A/WSN/1933(H1N1). Also on record: scale not given: the % may be the effect or the level left.

Calls of active or inactive are those of the source. The rule behind the calls is not given here. Where only a bound is given, the exact number is not on record here.

The term IC50 denotes the midpoint of a concentration-inhibition curve. Regarding `CCN(CC)c1ccc2c(c1)Oc1cc(N(CC)CC)ccc1C21c2ccccc2C(=O)N1CCNC(=O)[C@]12CCC(C)(C)C[C@@H]1C1=CC[C@@H]3[C@@]4(C)CC[C@H](O)C(C)(C)[C@@H]4CC[C@@]3(C)[C@]1(C)C[C@H]2O`, the Activity result in data set [1] is “Non-Toxic”; in [3] it was over 90%. For the same compound, the IC50 in data set [2] is 13.3 µM.
Regarding `CCN(CC)c1ccc2c(-c3ccccc3C(=O)O)c3ccc(=[N+](CC)CC)cc-3oc2c1` [RHODAMINE], the outcome in data set [4] was inactive. The IC50 in [2] is over 100 µM.
A word on the CC50: it is the concentration giving 50% cytotoxicity. Turning to `C=C(C)[C@@H]1CC[C@]2(C(=O)NCCN3C(=O)c4ccccc4C34c3ccc(N(CC)CC)cc3Oc3cc(N(CC)CC)ccc34)CC[C@]3(C)[C@H](CC[C@@H]4[C@@]5(C)CC[C@H](O)C(C)(C)[C@@H]5CC[C@]43C)[C@@H]12`, the CC50 at 36 h in data set [5] was found to be 324 µM. In addition, the Activity result in data set [1] is given as “Non-Toxic”. Also, the IC50 in data set [2] is 8.36 µM. For the same compound, the selectivity ratio in data set [6] is 38.8.
What is called Kd is the constant that tells how readily two partners part at equilibrium. With `C[C@H]1[C@H](C)CC[C@]2(C(=O)O)CC[C@]3(C)C(=CC[C@@H]4[C@@]5(C)CC[C@H](O)C(C)(C)[C@@H]5CC[C@]43C)[C@@H]12`, the Ka in data set [7] was 1.73 10^3/M.s. The results for the Kd in [8] and in data set [9] were 7.1 10^-2/s and 41 µM, respectively. The Activity in data set [3] is 31%.
As for `CCN(CC)c1ccc2c(c1)Oc1cc(N(CC)CC)ccc1C21c2ccccc2C(=O)N1CCNC(=O)[C@]12CC[C@@H](C)[C@H](C)[C@@H]1C1=CC[C@@H]3[C@@]4(C)CC[C@H](O)C(C)(C)[C@@H]4CC[C@@]3(C)[C@]1(C)CC2`, the outcome in data set [10] and in data set [20] was inactive. For the same compound, the Activity is 15% in data set [11]; 91% in [12]; 95% in data set [19]; “Non-Toxic” in data set [1]; over 90% in data set [3]; 25% in [22]. For the same compound, the Drug uptake is on record as 97.5% in [13]; 52.4% in [14]; “Active” in data set [15]; “Active” in data set [17]; 62.6% in [21]. In addition, in [16], the Stabilty entry is recorded as “Stable”. Besides, the CC50 at 36 h in [5] was 368 µM. Also, the Ka in data set [7] is 2.33 10^3/M.s. Besides, the results for the dissociation constant (Kd) in [8] and in data set [9] were 4.14 10^-2/s and 17.8 µM, respectively. Besides, the inhibition entry in data set [18] is “Active”. For the same compound, in data set [2], the IC50 is 8.24 µM. For the same compound, in data set [3] (A/WSN/1933(H1N1)), the result was Active. The selectivity ratio in data set [6] amounted to 44.7.
For `CCN(CC)c1ccc2c(c1)Oc1cc(N(CC)CC)ccc1C21c2ccccc2C(=O)N1CCNC(=O)[C@]12CCC(C)(C)C[C@@H]1C1=CC[C@@H]3[C@@]4(C)CC[C@H](O)C(C)(C)[C@@H]4CC[C@@]3(C)[C@]1(C)CC2`, the figures for the Activity result in data set [1] and in [3] were “Non-Toxic” and over 90%, respectively. Moreover, in [2], the IC50 stood at 14.3 µM.
Turning to `CC1(C)CC[C@]2(C(=O)O)CC[C@]3(C)C(=CC[C@@H]4[C@@]5(C)CC[C@H](O)C(C)(C)[C@@H]5CC[C@]43C)[C@H]2C1`, the Activity in [3] was determined as 17%.
